US8178506B2, “Oligomeric compounds and compositions for use in modulation of small non-coding RNAs” (Regulus Therapeutics Inc., priority 2003, dated 2012)
In the oligonucleotide strings, read from the 5' end, every base follows the letter of its sugar. An asterisk marks phosphorothioate; unmarked linkages are phosphodiester. Other units and linkages are bracketed, terminal groups are in braces. A string of capitals states the bases alone. e = 2'-O-(2-methoxyethyl) (MOE); [5mC] = 5-methylcytosine

Key:
[1] = system: aP2; experiment: aP2 mRNA expression in adipocytes (real-time PCR); format: cell-based, human; details: for aP2 mRNA / AP2 mRNA: differentiating adipocytes transfected with oligomeric compound; for aP2 mRNA: Table 75; for AP2 (mRNA expression): adipocytes, 250 nM oligomeric compound, day nine post-transfection, relative to control (1.0)
[2] = system: HuVECs; experiment: Endothelial tube formation assay in HuVECs; details: 75 nM oligomeric compound
[3] = system: HSL; experiment: HSL mRNA expression in adipocytes (real-time PCR); format: cell-based, human; details: for HSL mRNA: differentiating adipocytes transfected with oligomeric compound; for HSL (mRNA expression): adipocytes, 250 nM oligomeric compound, day nine post-transfection, relative to control (1.0)
[4] = system: Glut4; experiment: Glut4 mRNA expression in adipocytes (real-time PCR); format: cell-based, human; details: for GLUT4 mRNA: differentiating adipocytes transfected with oligomeric compound; for Glut4 (mRNA expression): adipocytes, 250 nM oligomeric compound, day nine post-transfection, relative to control (1.0)
[5] = system: BJ, B16-F10, T47D, T47Dp53 and HeLa cells; experiment: Cell cycle assay (propidium iodide flow cytometry), cell line panel; format: cell-based; details: 150 nM oligomeric compound, 4.5 μg/ml LIPOFECTIN, after 72 hours, propidium iodide flow cytometry
[6] = system: adipocytes; experiment: Triglyceride accumulation assay in adipocytes; format: cell-based, human
[7] = system: PPARγ; experiment: PPARγ mRNA expression in adipocytes (real-time PCR); format: cell-based, human; details: for PPAR gamma mRNA: differentiating adipocytes transfected with oligomeric compound; for PPAR gamma (mRNA expression): adipocytes, 250 nM oligomeric compound, day nine post-transfection, relative to control (1.0)
[8] = differentiating adipocytes transfected with oligomeric compound, Table 75
[9] = adipocytes, 250 nM oligomeric compound, relative to control (1.0), Table 15
[10] = adipocytes, 250 nM oligomeric compound, relative to control (1.0), Table 16
[11] = differentiating adipocytes transfected with oligomeric compound

327902 (antisense eG*eG*e[5mC]*eT*eG*eT*e[5mC]*eA*eA*eT*eT*e[5mC]*eA*eT*eA*eG*eG*eT*e[5mC]*eA*eG) [compound 327902]
aP2 mRNA [1]: 58 percentage of untreated control (UTC)
% Activity Relative to UTC (tube formation) ([2]; Table 57): 41.4%
HSL mRNA ([3]; Table 75): 56 percentage of untreated control (UTC)
GLUT4 mRNA ([4]; Table 75): 15 percentage of untreated control (UTC)
G1 (percentage of cells in phase of the cell cycle) [5]: 50.7%
G2/M (percentage of cells in phase of the cell cycle) [5]: 15.3%
S (percentage of cells in phase of the cell cycle) [5]: 33.9%
SubG1 (percentage of cells in phase of the cell cycle) [5]: 10.6%
aneuploid (percentage of cells) [5]: 13.4%
TG (triglyceride accumulation) [6, 8]: 55 percentage of untreated control (UTC)
PPAR gamma mRNA ([7]; Table 75): 56 percentage of untreated control (UTC)

327907 (antisense eA*eG*e[5mC]*e[5mC]*eT*eA*eT*e[5mC]*e[5mC]*eT*eG*eG*eA*eT*eT*eA*e[5mC]*eT*eT*eG*eA*eA) [compound 327907]
aP2 mRNA [1]: 29 percentage of untreated control (UTC)
% Activity Relative to UTC (tube formation) ([2]; Table 57): 62.1%
HSL mRNA ([3]; Table 75): 21 percentage of untreated control (UTC)
GLUT4 mRNA ([4]; Table 75): 6 percentage of untreated control (UTC)
G1 (percentage of cells in phase of the cell cycle) [5]: 49.5%
G2/M (percentage of cells in phase of the cell cycle) [5]: 17.6%
S (percentage of cells in phase of the cell cycle) [5]: 32.8%
SubG1 (percentage of cells in phase of the cell cycle) [5]: 17.8%
aneuploid (percentage of cells) [5]: 17.8%
TG (triglyceride accumulation) [6, 8]: 19 percentage of untreated control (UTC)
PPAR gamma mRNA ([7]; Table 75): 49 percentage of untreated control (UTC)

327941 (antisense eA*eA*e[5mC]*e[5mC]*e[5mC]*eA*e[5mC]*e[5mC]*eG*eA*e[5mC]*eA*eG*e[5mC]*eA*eA*eT*eG*eA*eA*eT*eG*eT*eT) [compound 327941]
AP2 (mRNA expression) ([1]; Table 15): 1.78
AP2 (mRNA expression) ([1]; Table 16): 0.88
% Activity Relative to UTC (tube formation) ([2]; Table 58): 74.1%
HSL (mRNA expression) ([3]; Table 15): 1.73
HSL (mRNA expression) ([3]; Table 16): 0.81
Glut4 (mRNA expression) ([4]; Table 15): 2.07
Glut4 (mRNA expression) ([4]; Table 16): 0.44
G1 (percentage of cells in phase of the cell cycle) [5]: 57.2%
G2/M (percentage of cells in phase of the cell cycle) [5]: 12.9%
S (percentage of cells in phase of the cell cycle) [5]: 29.9%
SubG1 (percentage of cells in phase of the cell cycle) [5]: 8.2%
aneuploid (percentage of cells) [5]: 15.8%
TG (triglyceride accumulation) [6, 9]: 1.31
TG (triglyceride accumulation) [6, 10]: 0.42
PPAR gamma (mRNA expression) ([7]; Table 15): 0.80
PPAR gamma (mRNA expression) ([7]; Table 16): 0.86

327923 (antisense eG*eA*eA*eA*eG*eA*eG*eA*e[5mC]*e[5mC]*eG*eG*eT*eT*e[5mC]*eA*e[5mC]*eT*eG*eT*eG*eA) [compound 327923]
aP2 mRNA [1]: 65 percentage of untreated control (UTC)
% Activity Relative to UTC (tube formation) ([2]; Table 57): 48.3%
HSL mRNA ([3]; Table 75): 64 percentage of untreated control (UTC)
GLUT4 mRNA ([4]; Table 75): 54 percentage of untreated control (UTC)
TG (triglyceride accumulation) [6, 8]: 88 percentage of untreated control (UTC)
PPAR gamma mRNA ([7]; Table 75): 77 percentage of untreated control (UTC)

327876 (antisense eA*eA*e[5mC]*eA*e[5mC]*eT*eG*eA*eT*eT*eT*e[5mC]*eA*eA*eA*eT*eG*eG*eT*eG*e[5mC]*eT*eA) [compound 327876]
AP2 (mRNA expression) ([1]; Table 15): 0.75
% Activity Relative to UTC (tube formation) ([2]; Table 56): 50.0%
HSL (mRNA expression) ([3]; Table 15): 0.47
Glut4 (mRNA expression) ([4]; Table 15): 0.36
TG (triglyceride accumulation) [6, 9]: 0.47
PPAR gamma (mRNA expression) ([7]; Table 15): 0.57

327954 (antisense eA*e[5mC]*eA*eA*eA*eG*eT*eT*e[5mC]*eT*eG*eT*eG*eA*eT*eG*e[5mC]*eA*e[5mC]*eT*eG*eA) [compound 327954]
AP2 (mRNA expression) ([1]; Table 15): 0.95
% Activity Relative to UTC (tube formation) ([2]; Table 59): 53.3%
HSL (mRNA expression) ([3]; Table 15): 1.03
Glut4 (mRNA expression) ([4]; Table 15): 0.92
TG (triglyceride accumulation) [6, 9]: 0.58
PPAR gamma (mRNA expression) ([7]; Table 15): 0.73

327931 (antisense eA*eA*e[5mC]*e[5mC]*eA*eT*eA*e[5mC]*eA*eA*e[5mC]*e[5mC]*eT*eA*e[5mC]*eT*eA*e[5mC]*e[5mC]*eT*e[5mC]*eA) [compound 327931]
AP2 (mRNA expression) ([1]; Table 16): 1.00
% Activity Relative to UTC (tube formation) ([2]; Table 58): 103.7%
HSL (mRNA expression) ([3]; Table 16): 0.99
Glut4 (mRNA expression) ([4]; Table 16): 1.37
TG (triglyceride accumulation) [6, 10]: 1.11
PPAR gamma (mRNA expression) ([7]; Table 16): 1.56

327890 (antisense eA*eG*e[5mC]*eA*e[5mC]*eA*eA*eA*e[5mC]*eT*eA*e[5mC]*eT*eA*e[5mC]*e[5mC]*eT*e[5mC]*eA) [compound 327890]
AP2 (mRNA expression) ([1]; Table 15): 0.91
AP2 (mRNA expression) ([1]; Table 16): 0.69
% Activity Relative to UTC (tube formation) ([2]; Table 56): 92.9%
HSL (mRNA expression) ([3]; Table 15): 0.86
HSL (mRNA expression) ([3]; Table 16): 0.67
Glut4 (mRNA expression) ([4]; Table 15): 1.10
Glut4 (mRNA expression) ([4]; Table 16): 0.67
TG (triglyceride accumulation) [6, 9]: 0.92
TG (triglyceride accumulation) [6, 10]: 0.61
PPAR gamma (mRNA expression) ([7]; Table 15): 1.18
PPAR gamma (mRNA expression) ([7]; Table 16): 0.94

327886 (antisense e[5mC]*eG*e[5mC]*eG*eT*eA*e[5mC]*e[5mC]*eA*eA*eA*eA*eG*eT*eA*eA*eT*eA*eA*eT*eG) [compound 327886]
aP2 mRNA [1]: 19 percentage of untreated control (UTC)
% Activity Relative to UTC (tube formation) ([2]; Table 56): 42.9%
HSL mRNA ([3]; Table 75): 22 percentage of untreated control (UTC)
GLUT4 mRNA ([4]; Table 75): 13 percentage of untreated control (UTC)
TG (triglyceride accumulation) [6, 8]: 12 percentage of untreated control (UTC)
PPAR gamma mRNA ([7]; Table 75): 25 percentage of untreated control (UTC)

327927 (antisense eT*eG*eT*eA*eA*eA*e[5mC]*e[5mC]*eA*eT*eG*eA*eT*eG*eT*eG*e[5mC]*eT*eG*e[5mC]*eT*eA) [compound 327927]
AP2 mRNA [1]: 114 percentage of untreated control (UTC)
% Activity Relative to UTC (tube formation) ([2]; Table 58): 59.3%
HSL mRNA [3]: 120 percentage of untreated control (UTC)
GLUT4 mRNA [4]: 120 percentage of untreated control (UTC)
TG (triglyceride accumulation) [6, 11]: 125 percentage of untreated control (UTC)
PPAR gamma mRNA [7]: 108 percentage of untreated control (UTC)

327956 (antisense e[5mC]*eA*e[5mC]*eA*eG*eT*eT*eG*e[5mC]*e[5mC]*eA*eG*e[5mC]*eT*eG*eA*eG*eA*eT*eT*eA) [compound 327956]
AP2 mRNA [1]: 102 percentage of untreated control (UTC)
% Activity Relative to UTC (tube formation) ([2]; Table 59): 46.7%
HSL mRNA [3]: 90 percentage of untreated control (UTC)
GLUT4 mRNA [4]: 69 percentage of untreated control (UTC)
TG (triglyceride accumulation) [6, 11]: 80 percentage of untreated control (UTC)
PPAR gamma mRNA [7]: 91 percentage of untreated control (UTC)

327917 (antisense eT*e[5mC]*eA*eA*e[5mC]*eA*eT*e[5mC]*eA*eG*eT*e[5mC]*eT*eG*eA*eT*eA*eA*eG*e[5mC]*eT*eA) [compound 327917]
aP2 mRNA [1]: 32 percentage of untreated control (UTC)
% Activity Relative to UTC (tube formation) ([2]; Table 57): 82.8%
HSL mRNA ([3]; Table 75): 26 percentage of untreated control (UTC)
GLUT4 mRNA ([4]; Table 75): 15 percentage of untreated control (UTC)
TG (triglyceride accumulation) [6, 8]: 26 percentage of untreated control (UTC)
PPAR gamma mRNA ([7]; Table 75): 54 percentage of untreated control (UTC)

327967 (antisense eA*e[5mC]*eT*eG*eT*eA*e[5mC]*eA*eA*eA*e[5mC]*eT*eA*e[5mC]*eT*eA*e[5mC]*e[5mC]*eT*e[5mC]*eA) [compound 327967]
AP2 (mRNA expression) ([1]; Table 16): 0.86
% Activity Relative to UTC (tube formation) ([2]; Table 59): 93.3%
HSL (mRNA expression) ([3]; Table 16): 0.97
Glut4 (mRNA expression) ([4]; Table 16): 0.56
TG (triglyceride accumulation) [6, 10]: 0.90
PPAR gamma (mRNA expression) ([7]; Table 16): 0.89

327880 (antisense eA*e[5mC]*eA*eA*eA*eT*eT*e[5mC]*eG*eG*eT*eT*e[5mC]*eT*eA*e[5mC]*eA*eG*eG*eG*eT*eA) [compound 327880]
AP2 (mRNA expression) ([1]; Table 15): 0.97
% Activity Relative to UTC (tube formation) ([2]; Table 56): 57.1%
HSL (mRNA expression) ([3]; Table 15): 0.80
Glut4 (mRNA expression) ([4]; Table 15): 1.11
TG (triglyceride accumulation) [6, 9]: 0.52
PPAR gamma (mRNA expression) ([7]; Table 15): 0.53
